Values after ≈ are worked out from the molar mass of the structure shown. Where only a bound is given, the exact number is not on record here.

The nature of data set [1]: Aqueous solubility of the drugs. In kind it is physicochemical. As to conditions: water.
Data set [2] is described as follows: Free drug analysis, 100,000-dalton cutoff filtration and HPLC. The settings on record: 2.5 mgA/mL suspension in deionized water with dextrose, about 300 mOsm. In kind it is physicochemical. How it is done:
The suspension was filtered using a centrifuge tube filter with a 100,000-dalton molecular-weight cutoff. The filtrate solution was assayed by high-performance liquid chromatography (HPLC).

Data set [3] can be described thus: Log P of Drug 1. In kind it is physicochemical. As to conditions: octanol/water. The text has this: The first property of hydrophobic drugs is that they are extremely hydrophobic. Log P, defined as the base 10 logarithm of the ratio of the drug solubility in octanol to the drug solubility in water, is a widely accepted measure of hydrophobicity. By “extremely hydrophobic” is meant that the Log P value of the drug is at least 4.0, preferably at least 4.5, and most preferably at least 5.0. Log P may be measured experimentally or calculated using methods known in the art. When using a calculated value for Log P, the highest value calculated using any generally accepted method for calculating Log P is used. Calculated Log P values are often referred to by the calculation method, such as Clog P, Alog P, and Mlog P. The Log P may also be estimated using fragmentation methods, such as Crippen's fragmentation method (27 J. Chem. Inf. Comput. Sci. 21 (1987)); Viswanadhan's fragmentation method (29 J. Chem. Inf. Comput. Sci. 163 (1989)); or Broto's fragmentation method (19 Eur. J. Med. Chem.-Chim. Theor. 71 (1984). Preferably the Log P value is calculated by using the average value estimated using Crippen's, Viswanadhan's, and Broto's fragmentation methods.

The conditions of data set [4]: for Observations: pH 6.5. How it is done: The polymer is a poorly aqueous soluble non-ionizable polymer. […] An appropriate PBS solution is an aqueous solution comprising 20 mM sodium phosphate (Na2HPO4), 47 mM potassium phosphate (KH2PO4), 87 mM NaCl, and 0.2 mM KCl, adjusted to pH 6.5 with NaOH. A test to determine whether the polymer is poorly aqueous soluble may be performed as follows. The polymer is initially present in bulk powder form with average particle sizes of greater than about 1 micron. The polymer alone is administered at a concentration of 0.2 mg/mL to the PBS solution and stirred for approximately 1 hour at room temperature. Next, a nylon 0.45 μm filter is weighed, and the polymer solution is filtered. The filter is dried overnight at 40° C., and weighed the following morning. The amount of polymer dissolved is calculated from the amount of polymer added to the PBS solution minus the amount of polymer remaining on the filter (mg). […] First, 0.2 mg/mL of the polymer was added to a PBS solution consisting of 20 mM Na2HPO4, 47 mM KH2PO4, 87 mM NaCl, and 0.2 mM KCl, adjusted to pH 6.5 with NaOH. The polymer was stirred in the PBS solution for approximately 1 hour at room temperature. Next, the polymer solution was filtered through a nylon 0.45 μm filter that was weighed dry prior to filtration. The filter was dried overnight at 40° C., and weighed the following morning. The amount of soluble polymer was calculated from the amount of polymer added to form the polymer solution minus the amount of polymer remaining on the filter.

`Cc1onc(-c2ccccc2)c1-c1ccc(S(N)(=O)=O)cc1` [Drug 1, 4-(5-methyl-3-phenyl-4-isoxazolyl) benzenesulfonamide]: the solubility – broadly, the concentration that dissolves in the medium under given conditions – in data set [1] is about 10 µg/mL (≈ 31.8 µM). For the same compound, the “Free Drug” value in data set [2] amounted to 11 µg/mL. The logP (commonly the decadic logarithm of the partition coefficient of the neutral form, usually between octanol and water) in data set [3] is about 3.
Regarding `CC[C@@H]1C[C@H](N(Cc2cc(C(F)(F)F)cc(C(F)(F)F)c2)C(C)=O)c2cc(C(F)(F)F)ccc2N1C(=O)OC(C)C` [Drug 2, [2R,4S] 4-[acetyl-(3,5-bis-trifluoromethyl-benzyl)-amino]-2-ethyl-6-trifluoromethyl-3,4-dihydro-2H-quinoline-1-carboxylic acid isopropyl ester], the solubility in data set [1] was under 1 µg/mL.
`Cc1ccc(C)c(Cc2nc(CO)nn2-c2ccc(S(N)(=O)=O)cc2F)c1` [Drug 3] registered a solubility in data set [1] of about 650 µg/mL (≈ 1660 µM).
On the same count and under the same terms, under `COCCN(C)Cc1nc(Cc2cccc(C)c2)n(-c2ccc(S(N)(=O)=O)cc2F)n1` [Drug 4] stands about 740 µg/mL (≈ 1650 µM); under `CCNC1CN(CCCOC)S(=O)(=O)c2sc(S(N)(=O)=O)cc21` (centres unmarked) [Drug 5, brinzolamide, reference compound], about 490 µg/mL (≈ 1280 µM).
With cellulose triacetate, in data set [4], the “Amount Soluble at pH 6.5” value was under 0.001 mg/mL and the Observations result was “Fine particle”.
On the same counts, the results for ethylcellulose are under 0.001 mg/mL and “Fine particle”.

These data come from patent US9233078B2, “Nanoparticles comprising a non-ionizable polymer and an Amine-functionalized methacrylate copolymer” (Bend Research, Inc., priority 2007, dated 2016).
